Literature values, collected in US7858659B2, “Redox therapy for tumors” (priority 2003, dated 2010).
Converted amounts (≈) assume the structure as drawn. Where two headings read alike, the source gives them in different places.

What was measured:
U937 cancer cells = settings: Lizard et al. 1998; cited from earlier work
[1] = system: prostate cancer cell lines; settings: green tea phenols; cited from earlier work
[2] = cited from earlier work; for Solubility: Example 4 table
neuroblastoma cells = settings: Nicole et al. 1998; cited from earlier work
malignant cells [3] = settings: BSO by itself; Dai et al. 1999; cited from earlier work
[4] = Example 4 table; cited from earlier work
mice = settings: mouse, in vivo; cited from earlier work
malignant cells [5] = settings: cited from earlier work; for Effective Concentration in vitro: Example 4 table; for Concentration: Table 1
malignant cells [6] = settings: Table 1; BSO: [Kito]; cited from earlier work
adults = settings: cited from earlier work
mice/rats = settings: cited from earlier work
[7] = target: T1, glutathione reductase (GR) (Mus musculus, UniProt P47791); settings: Cohen 1988, cited from earlier work
T1 construct: recovery of enzyme activity in exponentially growing murine leukemia (L1210) cells treated with 1,3-bis(2-chloroethyl)-1-nitrosourea
T1 sequence (P47791 27-500): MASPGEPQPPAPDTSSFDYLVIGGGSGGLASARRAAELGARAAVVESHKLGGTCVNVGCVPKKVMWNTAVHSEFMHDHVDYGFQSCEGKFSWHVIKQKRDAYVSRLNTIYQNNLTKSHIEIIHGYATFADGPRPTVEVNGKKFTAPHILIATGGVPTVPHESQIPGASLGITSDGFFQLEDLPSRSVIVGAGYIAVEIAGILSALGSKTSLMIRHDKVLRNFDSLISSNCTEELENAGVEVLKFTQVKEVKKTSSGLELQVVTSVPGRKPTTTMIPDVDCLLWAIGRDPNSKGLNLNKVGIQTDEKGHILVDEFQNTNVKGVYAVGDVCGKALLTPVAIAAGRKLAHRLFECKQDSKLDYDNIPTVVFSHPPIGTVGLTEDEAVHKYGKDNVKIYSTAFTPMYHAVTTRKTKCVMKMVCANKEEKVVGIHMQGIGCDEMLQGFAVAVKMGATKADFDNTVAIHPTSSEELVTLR

rats = settings: cited from earlier work
[8] = system: normal human bronchial fibroblasts and human bronchial epithelial cells; settings: cited from earlier work
A-427 and A-172 = settings: various cancer cell lines, such as A-427 and A-172; cited from earlier work
normal lymphocytes = settings: Sen et al. 1999; cited from earlier work
[9] = system: Jurkat T-cell leukemia cells; settings: Sen et al. 1999; cited from earlier work

CC(C)CCC[C@@H](C)[C@H]1CC[C@H]2[C@@H]3C(=O)C=C4C[C@@H](O)CC[C@]4(C)[C@H]3CC[C@]12C [7-ketocholesterol]
apoptosis (U937 cancer cells): induced apoptosis

O=C(O[C@@H]1Cc2c(O)cc(O)cc2O[C@@H]1c1cc(O)c(O)c(O)c1)c1cc(O)c(O)c(O)c1 [(−)-epigallocatechin-3-gallate]
apoptosis [1]: induced apoptosis

CCCCS(=N)(=O)CCC(N)C(=O)O (stereo not drawn) [BSO, buthionine sulfoximine]
Solubility [2]: soluble
Solubility [Merck] ([2]; Table 1, in words): Soluble
apoptosis (neuroblastoma cells): induced apoptosis
decrease of GSH content (neuroblastoma cells): 98%
apoptosis (malignant cells [3]): did not induce significant apoptosis
decrease in [GSH] in the cell (malignant cells [3]): 70%
Toxicity [4]: 10,000 microM
Toxicity (mice): 9.6 g/kg (mice) →
Effective Concentration in vitro (malignant cells [5]): 100 µM
Concentration (malignant cells [5]; disulfiram: [Cen]): 10 to 25 µM
apoptosis (malignant cells [6]): Enhancement [Kito]
Toxicity: nausea/vomiting (adults; [Bailey]): occasional

O=NN(CCCl)C(=O)NCCCl [Carmustine, N,N′-bis(2-chloroethyl)-N-nitrosourea]
Solubility [2]: 40 µM (≈ 8.56 µg/mL)
Solubility [Merck] ([2]; Table 1): 4 mg/L (≈ 18.7 µM)
LD50 [Merck] (mice/rats): 25 to 30 mg/kg
activity of GR restored ([7]; 12 hours, de novo synthesis): 50%
GR restored ([7]; 24 hours, de novo synthesis): 70%
concentration with which GR is inhibited ([7]; only carmustine present): 10 µM
time within which GR is inhibited ([7]; with 10 μM): ½
Effective Concentration in vitro (malignant cells [5]): 0.05 µM
Concentration (malignant cells [5]; [Cohen & Duval]): 50 ng/mL
apoptosis (malignant cells [6]): Induction

CCN(CC)C(=S)SSC(=S)N(CC)CC [Disulfiram]
Solubility [2]: 2,000 microM
Solubility [Merck] ([2]; Table 1): 0.02 g/100 ml
Toxicity [4]: 10,000 microM
LD50 [Merck] (rats): 8600 mg/kg (rats)
Toxicity (adults; adults): 3 g (adults)

C=CC=O [acrolein]
toxicity to normal cells [8]: highly toxic
cytotoxicity (A-427 and A-172): induced cytotoxicity

O=C(O)CCCCC1CCSS1 (stereo not drawn) [α-lipoic acid]
apoptosis (normal lymphocytes): did not
apoptosis [9]: underwent apoptosis
